Data: patent US9504702B2, “Methods of inhibition of protein fucosylation in vivo using fucose analogs” (Seattle Genetics, Inc., priority 2010, dated 2016)

Legend:
[1] = system: antibody core fucosylation (antibodies that did not bind to KLH, recovered from protein A column); experiment: In vivo antibody fucosylation after ip dosing (Example 1, Study 1), AOL lectin dot blot; details: 150 mg/kg ip daily for 7 days
Experimental: Female BALB/c mice were immunized with Keyhole Limpet Hemocyanin (KLH) 30-60 days prior to starting this study. For the first study, mice were dosed ip with 150 mg/kg of alkynyl fucose (SGD-1887), alkynyl fucose peracetate (SGD-1890), 2-fluorofucose (SGD-2083), or 2-fluorofucose triacetate (SGD-2084) daily for 7 days or were untreated. On day 2, mice were also boosted with KLH. On the day after the last ip dose, mice were terminally bled and serum obtained. For the second study, mice were given 100 mM of 2-fluorofucose (SGD-2083) in their drinking water or given untreated water for 7 days, boosted with KLH, and continued with 100 mM 2-fluorofucose containing drinking water or untreated water for 7 more days before being terminally bled. Serum was then obtained. No mice died in either study. For both studies, serum was passed over a commercial anti-KLH affinity column to obtain KLH-specific polyclonal antibodies. The flow through from the anti-KLH affinity column was passed over a commercial protein A column to obtain the remaining antibodies.
Dot blots: 0.5 μg each of antibodies from untreated and treated animals, as well as standards of antibody cAC10 having known amounts of core fucosylation (0 to 100% fucose), were blotted onto a nitrocellulose membrane. The proteins levels were visualized by Ponceau staining. The blot was probed with biotinylated Aspergillus oryzae L-fucose-specific lectin (AOL) (which binds to fucosylated antibodies) and developed with streptavidin HRP and ECL. Gel loading (visible) and fucose signals (bioluminescence) were measured with an Alpha Innotech camera and quantitated with the machine software.

[2] = system: P-selectin ligand on Ramos cells; experiment: Cell surface P-selectin ligand by FACS, P-selectin fusion protein, Ramos; type: cell-based, human
Experimental: 100 μM of each inhibitor was used under standard culture conditions for approximately 1-2 weeks with regular changes of culture medium including fresh inhibitor. After the incubation period, the cells were analyzed by FACS using four different detection reagents: biotinylated-Lens culimaris agglutinin-A (LCA), anti-Lewis' antibody (anti-SSEA1), an anti-Lewis^y antibody (cBR96), and a Recombinant Human P-Selectin/CD62P/Fc Fusion protein. The procedure involved washing of the cells with FACS buffer (PBS+10% bovine serum albumin+0.02% sodium azide) 3 times followed by incubation with the primary detection reagent for 1 hr at 4° C., followed by 3 washes with FACS buffer and then incubation with the secondary detection reagent for 1 hr at 4° C. The cells were finally washed with FACS buffer 3 times and resuspended in FACS buffer and examined using a BD FACScan instrument. […] The P-selectin fusion protein detects P-selectin ligand present on the surface of cells, an interaction which involves the sialyl Lewis' epitope present of the P-selectin ligand.

[3] = system: antibody core fucosylation (CHO DG44 cell line producing humanized IgG1 anti-CD70 antibody h1F6); experiment: Inhibition of antibody core fucosylation in CHO DG44 cell culture producing h1F6; type: cell-based; details: 120 h; 50 μM fucose analog, day 5, CHO DG44 h1F6; read-out: Inhibition at 50 μM
Experimental: Fucose analogs have been evaluated for their effect on antibody core fucosylation at concentrations of 50 μM and 1 mM generally as described in Published US Patent Application 2009-0317869. Briefly, the protocol was as follows: A CHO DG44 cell line producing a humanized IgG1 anti-CD70 monoclonal antibody, h1F6 (see International Patent Publication WO 06/113909) was cultured at 7.5×10^5 cells per mL in 2 mLs of CHO culture media at 37°, 5% CO2 and shaking at 100 RPM in a 6 well tissue culture plate. Media was supplemented with insulin like growth factor (IGF), penicillin, streptomycin and either 1 mM or 50 μM of the fucose analog. On day 5 post inoculation, the culture was centrifuged at 13000 RPM for 5 minutes to pellet the cells; antibodies were then purified from supernatant.
Antibody purification was performed by applying the conditioned media to protein A resin pre-equilibrated with 1× phosphate buffered saline (PBS), pH 7.4. After washing resin with 20 resin bed volumes of 1×PBS, antibodies were eluted with 5 resin bed volumes of Immunopure IgG elution buffer (Pierce Biotechnology, Rockford, Ill.). A 10% volume of 1M Tris pH 8.0 was added to neutralize the eluted fraction.

[4] = system: LP-1, a human multiple myeloma cell line (IgG fucosylation); experiment: Fucosylation of LP-1-generated IgG, AOL dot blot; type: cell-based; details: Homo sapiens, LP-1, 120 h, 5 days, LP-1 cells, AOL dot blot, multiple samples separated by semicolon, read-out: % of control fucosylated IgG value
Experimental: To further evaluate the activities of different fucose analogs, 48 different fucose analogs and other four glycosylation inhibitors were tested for their ability to affect the fucosylation the LP-1-generated IgG. LP-1 cells (250,000 cells/mL, 3 mL per compound in 6-well plates) were incubated with 100 μM of each fucose analog for 5 days at 37° C. with a humidified atmosphere of 5% CO2 in IgG-depleted tissue culture media (90% RPMI with 10% IgG-depleted heat inactivated FBS). The IgG was isolated as described above using only 0.5 mL of MabSelect™ protein A resin slurry and one spin cup per sample with elution in 400 μL of IgG elution buffer into 25 μL of 9 M Tris buffer, pH 9. The eluates were concentrated to 10-20 μL per sample and 2 μL of each of the concentrated eluates were dotted onto a nitrocellulose membrane and stained with Ponceau S to estimate and adjust the sample loading for AOL staining. From this estimation of total protein in each sample, approximately 0.5 μg of each sample was dotted onto the membrane, air-dried, and stained with Ponceau S. An image of this stained membrane was captured using an Alpha Innotech FlourChem® Q system. The membrane was then blocked with 5% Bovine Serum Albumin (BSA) in Tris Buffered Saline (TBS) for 1 hr, washed with TBST (TBS with […]) 3 times and then incubated with 5 μg/ml biotinylated-AOL for 1 hr. The membrane was washed again with TBST 3 times, followed by Streptavidin-HRP incubation for 30 min and final washes with TBST 3 times.

## C#CC(O)[C@@H](O)[C@@H](O)[C@H](O)C=O (some centres unmarked) [SGD-1887, 5-ethynylarabinose]
[1]
  mortality: No mice died
[1]; non-KLH antibodies from protein A column, dot blot, on average
  fucosylation levels of the antibodies reduced, as compared to the untreated controls: about one third
[2]
  signal for P-selectin ligand (increase upon treatment): not observed
[3]
  Inhibition at 50 μM: > 80%
[4]
  activity at 100 µM: 3%
